Earlier results in PubChem BioAssay AID1259409 (Chemical Carcinogenesis Research Information System (CCRIS), 2018).

Test system: rodent chemically induced tumor inhibition, incidence and multiplicity
Test: CCRIS tumor inhibitor studies
Details: Dose [Inhibitor]: 0

COc1cc(/C=C/C(=O)CC(=O)/C=C/c2ccc(O)c(OC)c2)ccc1O
tumour outcome (control, treated, inhibition, significance) (Carcinogen: AZOXYMETHANE, 25843-45-2, 4% COMMERCIAL GRADE CURCUMIN IN DIET FOR 35 WK BEGINNING 2 WK PRIOR TO CARCINOGEN TREATMENT (STUDY DURATION: 35 WK), Route [Inhibitor]: ORAL, Species: MOUSE, Strain/Sex: CF-1/FEMALE, Target Tissue: Type of Lesion: COLON: ADENOCARCINOMA, Dose [Carcinogen]: 10 MG/KG BW IN 100 µL NORMAL SALINE 1/WK FOR 6 WK, Promoter: NONE USED): 40%, 15%, 63%, not significant
tumour outcome (control, treated, inhibition, significance) (Carcinogen: AZOXYMETHANE, 25843-45-2, 4% COMMERCIAL GRADE CURCUMIN IN DIET FOR 35 WK BEGINNING 2 WK PRIOR TO CARCINOGEN TREATMENT (STUDY DURATION: 35 WK), Route [Inhibitor]: ORAL, Species: MOUSE, Strain/Sex: CF-1/FEMALE, Target Tissue: Type of Lesion: COLON: ADENOMA, Dose [Carcinogen]: 10 MG/KG BW IN 100 µL NORMAL SALINE 1/WK FOR 6 WK, Promoter: NONE USED): 93%, 56%, 40%, not significant
tumour outcome (control, treated, inhibition, significance) (Carcinogen: AZOXYMETHANE, 25843-45-2, 200O PPM IN DIET FOR 56 WK BEGINNING 2 WK PRIOR TO CARCINOGEN TREATMENT (STUDY DURATION: 56 WK), Route [Inhibitor]: ORAL, Species: RAT, Strain/Sex: F344/MALE, Target Tissue: Type of Lesion: COLON: ADENOCARCINOMA, Dose [Carcinogen]: 15 MG/KG BW 1/WK FOR 2 WK, Promoter: NONE USED): 81%, 47%, 42%, p<0.004
tumour outcome (control, treated, inhibition, significance) (Carcinogen: BENZO[A]PYRENE, 50-32-8, 0.5% COMMERCIAL GRADE CURCUMIN IN DIET FOR 7 WK BEGINNING 2 WK PRIOR TO CARCINOGEN TREATMENT (STUDY DURATION: 30 WK), Route [Inhibitor]: ORAL, Species: MOUSE, Strain/Sex: STRAIN-A/FEMALE, Target Tissue: Type of Lesion: FORESTOMACH: PAPILLOMA, Dose [Carcinogen]: 1.5 MG IN 100 µL CORN OIL 1/WK FOR 4 WK, Promoter: NONE USED): 97%, 87%, 10%, not significant
tumour outcome (control, treated, inhibition, significance) (Carcinogen: BENZO[A]PYRENE, 50-32-8, 0.5% COMMERCIAL GRADE CURCUMIN IN DIET FOR 7 WK BEGINNING 2 WK PRIOR TO CARCINOGEN TREATMENT (STUDY DURATION: 30 WK), Route [Inhibitor]: ORAL, Species: MOUSE, Strain/Sex: STRAIN-A/FEMALE, Target Tissue: Type of Lesion: FORESTOMACH: SQUAMOUS CELL CARCINOMA, Dose [Carcinogen]: 1.5 MG IN 100 µL CORN OIL 1/WK FOR 4 WK, Promoter: NONE USED): 41%, 23%, 44%, not significant
tumour outcome (control, treated, inhibition, significance) (Carcinogen: BENZO[A]PYRENE, 50-32-8, 0.5% COMMERCIAL GRADE CURCUMIN IN DIET FOR 23 WK BEGINNING 1 WK POST CARCINOGEN TREATMENT (STUDY DURATION: 30 WK), Route [Inhibitor]: ORAL, Species: MOUSE, Strain/Sex: STRAIN-A/FEMALE, Target Tissue: Type of Lesion: FORESTOMACH: PAPILLOMA, Dose [Carcinogen]: 1.5 MG IN 100 µL CORN OIL 1/WK FOR 4 WK, Promoter: NONE USED): 97%, 89%, 8%, not significant
tumour outcome (control, treated, inhibition, significance) (Carcinogen: BENZO[A]PYRENE, 50-32-8, 0.5% COMMERCIAL GRADE CURCUMIN IN DIET FOR 23 WK BEGINNING 1 WK POST CARCINOGEN TREATMENT (STUDY DURATION: 30 WK), Route [Inhibitor]: ORAL, Species: MOUSE, Strain/Sex: STRAIN-A/FEMALE, Target Tissue: Type of Lesion: FORESTOMACH: SQUAMOUS CELL CARCINOMA, Dose [Carcinogen]: 1.5 MG IN 100 µL CORN OIL 1/WK FOR 4 WK, Promoter: NONE USED): 41%, 30%, 27%, not significant
tumour outcome (control, treated, inhibition, significance) (Carcinogen: BENZO[A]PYRENE, 50-32-8, 2% COMMERCIAL GRADE CURCUMIN IN DIET FOR 7 WK BEGINNING 2 WK PRIOR TO CARCINOGEN TREATMENT (STUDY DURATION: 30 WK), Route [Inhibitor]: ORAL, Species: MOUSE, Strain/Sex: STRAIN-A/FEMALE, Target Tissue: Type of Lesion: FORESTOMACH: PAPILLOMA, Dose [Carcinogen]: 1.5 MG IN 100 µL CORN OIL 1/WK FOR 4 WK, Promoter: NONE USED): 97%, 83%, 14%, not significant
tumour outcome (control, treated, inhibition, significance) (Carcinogen: BENZO[A]PYRENE, 50-32-8, 2% COMMERCIAL GRADE CURCUMIN IN DIET FOR 7 WK BEGINNING 2 WK PRIOR TO CARCINOGEN TREATMENT (STUDY DURATION: 30 WK), Route [Inhibitor]: ORAL, Species: MOUSE, Strain/Sex: STRAIN-A/FEMALE, Target Tissue: Type of Lesion: FORESTOMACH: SQUAMOUS CELL CARCINOMA, Dose [Carcinogen]: 1.5 MG IN 100 µL CORN OIL 1/WK FOR 4 WK, Promoter: NONE USED): 41%, 10%, 76%, not significant
tumour outcome (control, treated, inhibition, significance) (Carcinogen: BENZO[A]PYRENE, 50-32-8, 2% COMMERCIAL GRADE CURCUMIN IN DIET FOR 23 WK BEGINNING 1 WK POST CARCINOGEN TREATMENT (STUDY DURATION: 30 WK), Route [Inhibitor]: ORAL, Species: MOUSE, Strain/Sex: STRAIN-A/FEMALE, Target Tissue: Type of Lesion: FORESTOMACH: PAPILLOMA, Dose [Carcinogen]: 1.5 MG IN 100 µL CORN OIL 1/WK FOR 4 WK, Promoter: NONE USED): 97%, 79%, 19%, not significant
tumour outcome (control, treated, inhibition, significance) (Carcinogen: BENZO[A]PYRENE, 50-32-8, 2% COMMERCIAL GRADE CURCUMIN IN DIET FOR 23 WK BEGINNING 1 WK POST CARCINOGEN TREATMENT (STUDY DURATION: 30 WK), Route [Inhibitor]: ORAL, Species: MOUSE, Strain/Sex: STRAIN-A/FEMALE, Target Tissue: Type of Lesion: FORESTOMACH: SQUAMOUS CELL CARCINOMA, Dose [Carcinogen]: 1.5 MG IN 100 µL CORN OIL 1/WK FOR 4 WK, Promoter: NONE USED): 41%, 14%, 66%, not significant
tumour outcome (control, treated, inhibition, significance) (Carcinogen: BENZO[A]PYRENE, 50-32-8, 3 UMOL IN ACETONE 1/WK FOR 10 WK APPLIED 5 MIN PRIOR TO EACH CARCINOGEN DOSE (STUDY DURATION: 32 WK), Route [Inhibitor]: DERMAL, Species: MOUSE, Strain/Sex: CD-1/FEMALE, Target Tissue: Type of Lesion: SKIN: TUMORS, Dose [Carcinogen]: 20 NMOL 1/WK FOR 10 WK, Promoter: 12-O-TETRADECANOYLPHORBOL-13-ACETATE, 16561-29-8): 100%, 75%, 25%, not calculated
tumour outcome (control, treated, inhibition, significance) (Carcinogen: BENZO[A]PYRENE, 50-32-8, 5% IN DIET FOR 8 WK BEGINNING 2 WK PRIOR TO CARCINOGEN TREATMENT (STUDY DURATION: 20 WK), Route [Inhibitor]: ORAL, Species: MOUSE, Strain/Sex: SWISS/FEMALE, Target Tissue: Type of Lesion: FORESTOMACH: TUMOR, Dose [Carcinogen]: 1 MG IN 0.1 ML PEANUT OIL 2/WK FOR 4 WK, Promoter: NONE USED): 20/20 (100%), 12/20 (60%), 40%, p<0.001
tumour outcome (control, treated, inhibition, significance) (Carcinogen: BENZO[A]PYRENE, 50-32-8, 10 UMOL IN ACETONE 1/WK FOR 10 WK APPLIED 5 MIN PRIOR TO EACH CARCINOGEN DOSE (STUDY DURATION: 32 WK), Route [Inhibitor]: DERMAL, Species: MOUSE, Strain/Sex: CD-1/FEMALE, Target Tissue: Type of Lesion: SKIN: TUMORS, Dose [Carcinogen]: 20 NMOL 1/WK FOR 10 WK, Promoter: 12-O-TETRADECANOYLPHORBOL-13-ACETATE, 16561-29-8): 100%, 82%, 18%, not calculated
